The nature of data set [1]: Drug recovery in liver of male Sprague-Dawley rat at 4.5 mg/kg, po administered as C14-lableled compound and assessed as radioactivity and measured at 0.25 hrs. The format is ADME, organism-based. Particulars: in vivo.
Data set [2] can be described thus: Half-life in male Beagle dog at 5 mg/kg, po measured by LC-MS/MS analysis. The format is ADME, organism-based, Canis lupus familiaris. The note with it: in vivo.
The target in data set [3] is T1, Bile acid receptor (Rattus norvegicus) (UniProt Q62735).
T1 sequence (whole entry): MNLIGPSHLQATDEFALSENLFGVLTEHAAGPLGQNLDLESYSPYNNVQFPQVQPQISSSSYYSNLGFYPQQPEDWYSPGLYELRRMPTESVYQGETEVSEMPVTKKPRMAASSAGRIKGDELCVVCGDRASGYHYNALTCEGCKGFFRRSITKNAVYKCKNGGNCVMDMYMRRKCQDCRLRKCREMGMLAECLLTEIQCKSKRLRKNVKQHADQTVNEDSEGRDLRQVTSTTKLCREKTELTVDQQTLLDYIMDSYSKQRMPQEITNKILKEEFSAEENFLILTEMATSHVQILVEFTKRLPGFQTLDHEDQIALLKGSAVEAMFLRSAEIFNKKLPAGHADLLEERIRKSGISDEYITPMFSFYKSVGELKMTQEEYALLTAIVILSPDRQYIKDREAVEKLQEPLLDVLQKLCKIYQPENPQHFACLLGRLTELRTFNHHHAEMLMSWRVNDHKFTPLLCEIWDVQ
Put plainly: In vivo activation of FXR in male Sprague-Dawley rat assessed as fold increase in liver BSEP level at 5 mg/kg, po administered as single dose measured at 1 hr by RT-qPCR assay. Type of data set: functional, organism-based. For orientation: Real-time PCR tracks product formation cycle by cycle.

Data set [4] can be described thus: Drug recovery in kidney of male Sprague-Dawley rat at 4.5 mg/kg, po administered as C14-lableled compound and assessed as radioactivity and measured at 6 hrs. The format is ADME, organism-based. The note with it: in vivo.
Data set [5] can be described thus: Drug recovery in liver of male Sprague-Dawley rat at 4.5 mg/kg, po administered as C14-lableled compound and assessed as radioactivity and measured at 6 hrs. Type of data set: ADME, organism-based. Particulars: in vivo.
Another data set deals with Mus musculus. Description: Anti-NASH activity against high fat (HF) diet-induced nonalcoholic steatohepatitis in leptin-deficient ob/ob mouse model assessed as reduction in NASH activity score (NAS) at 0.3 to 1 mg/kg, po administered once daily from week 5 to 10. The format is functional, organism-based. The note with it: dose 0.3-1 mg/kg.
Data set [6] can be described thus: Mutagenecity in Salmonella typhimurium TA102 measured by Ames test. Type of data set: toxicity. The note with it: salmonella enterica subsp. enterica serovar typhimurium. On the technique in general: The Ames test detects mutagens through reverse mutation in bacteria.
Data set [7] in a line: Drug recovery in kidney of male Sprague-Dawley rat at 4.5 mg/kg, po administered as C14-lableled compound and assessed as radioactivity and measured at 0.25 hrs. The format is ADME, organism-based. The note with it: in vivo.
Data set [8] in a line: Volume of distribution at steady state in male Beagle dog at 1 mg/kg, iv measured by LC-MS/MS analysis. The format is ADME, organism-based, Canis lupus familiaris. Particulars: in vivo, read-out: Vdss.
Data set [9] can be described thus: Drug recovery in pancreas of male Sprague-Dawley rat at 4.5 mg/kg, po administered as C14-lableled compound and assessed as radioactivity and measured at 24 hrs. Type of data set: ADME, organism-based. The note with it: in vivo.
For data set [10], the target named is T2, Peroxisome proliferator-activated receptor gamma (Homo sapiens, UniProt P37231).
T2 sequence (P37231 whole entry): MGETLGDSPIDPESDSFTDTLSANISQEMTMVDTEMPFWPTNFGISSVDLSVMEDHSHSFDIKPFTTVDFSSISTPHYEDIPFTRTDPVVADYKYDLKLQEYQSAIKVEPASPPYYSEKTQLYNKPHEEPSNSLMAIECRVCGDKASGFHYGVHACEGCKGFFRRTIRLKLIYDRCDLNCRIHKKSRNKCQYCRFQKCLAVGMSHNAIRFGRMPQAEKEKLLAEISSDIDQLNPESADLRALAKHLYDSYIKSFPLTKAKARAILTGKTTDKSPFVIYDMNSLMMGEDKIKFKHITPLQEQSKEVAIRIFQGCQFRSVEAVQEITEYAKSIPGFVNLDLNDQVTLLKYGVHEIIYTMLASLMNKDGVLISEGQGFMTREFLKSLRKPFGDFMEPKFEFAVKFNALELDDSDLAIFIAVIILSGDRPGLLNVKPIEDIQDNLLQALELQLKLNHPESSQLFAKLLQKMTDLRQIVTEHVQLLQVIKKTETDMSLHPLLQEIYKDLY
Put plainly: Agonist activity at PPARgamma (unknown origin).

Data set [11] is described as follows: Clearance in male C57BL/6 mouse at 2 mg/kg, iv measured by LC-MS/MS analysis. Type of data set: ADME, organism-based. Particulars: in vivo.
Data set [12] can be described thus: Drug metabolism in bile of Sprague-Dawley rat assessed as production of toxic metabolites at 4.5 mg/kg, po administered as C14-lableled compound with single dose. Type of data set: ADME, organism-based. Particulars: in vivo.
Data set [13] in a line: Mutagenecity in Salmonella typhimurium TA97A measured by Ames test. Type of data set: toxicity. Particulars: salmonella enterica subsp. enterica serovar typhimurium.
Data set [14] is described as follows: Drug recovery in pancreas of male Sprague-Dawley rat at 4.5 mg/kg, po administered as C14-lableled compound and assessed as radioactivity and measured at 0.25 hrs. The format is ADME, organism-based. The note with it: in vivo.
Data set [15] is described as follows: AUC (0 to t) in male Sprague-Dawley rat at 5 mg/kg, po measured by LC-MS/MS analysis. The note with it: in vivo. The format is ADME, organism-based. Also on record: dose 5 mg/kg, route po.
In the next data set the target is T3, Bile acid receptor (Homo sapiens, UniProt Q96RI1).
T3 sequence (Q96RI1 whole entry): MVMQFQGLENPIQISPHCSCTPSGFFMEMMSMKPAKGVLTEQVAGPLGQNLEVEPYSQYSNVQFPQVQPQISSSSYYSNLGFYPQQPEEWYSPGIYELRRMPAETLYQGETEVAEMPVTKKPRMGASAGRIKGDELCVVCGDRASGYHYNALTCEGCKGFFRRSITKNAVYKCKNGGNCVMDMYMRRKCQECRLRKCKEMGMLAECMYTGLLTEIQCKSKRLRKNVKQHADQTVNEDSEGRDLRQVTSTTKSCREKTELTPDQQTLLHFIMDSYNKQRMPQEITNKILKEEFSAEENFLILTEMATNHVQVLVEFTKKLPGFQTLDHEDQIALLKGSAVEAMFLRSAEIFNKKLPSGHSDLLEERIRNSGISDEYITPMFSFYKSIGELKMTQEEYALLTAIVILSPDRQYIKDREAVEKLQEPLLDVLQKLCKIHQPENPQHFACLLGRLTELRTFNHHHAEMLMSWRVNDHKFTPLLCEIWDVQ
Description: Agonist activity at human FXR expressed in HEK293T cells by luciferase reporter assay. The format is cell-based.

Data set [16] can be described thus: Ratio of drug level in heart to plasma in male Sprague-Dawley rat at 4.5 mg/kg, po administered as C14-lableled compound and measured at 0.25 to 6 hrs. The format is ADME, organism-based. The note with it: other tissue, time 0.25-6 hrs.

The source made the active and inactive calls. The rule behind the calls is not given here. A value given as a limit tells only on which side of the number the result lay.

The half-life is the time in which the quantity being followed falls by half. Read a low half-life as fast loss. One may read the EC50 as the concentration needed to bring the measured effect to its halfway point. A higher EC50 goes with a need for much substance. Usually clearance stands for the rate of elimination divided by the concentration. Higher therefore signals a high capacity for elimination. In general, AUC(0-t) refers to the area under the concentration-time curve up to a stated or last time point. Read a low AUC(0-t) as low exposure.

Consider `O=C(O)c1ccc2c(c1)Oc1ccc(OCc3c(-c4c(Cl)cccc4Cl)noc3C3CC3)nc1C1(CC1)C2`, for which the Drug recovery in data set [1] came to 5308 ngequiv/g; in data set [4], 67.8 ngequiv/g; in data set [5], 521 ngequiv/g; in data set [7], 281 ngequiv/g; in [9], 206 ngequiv/g; in [14], 177 ngequiv/g. The half-life in data set [2] was 3.42 h. In addition, in data set [3], the fold change (FC) amounted to 2. Besides, in the data set with Mus musculus, the result was Active. In addition, the Activity result in data set [6] and in data set [13] was “Non-Toxic” throughout. For the same molecule, the Vd in [8] came out at 1.12 L/kg. Further, the EC50 in data set [10] was greater than 10000 nM; on Bile acid receptor, 1.55 nM. Besides, the clearance in data set [11] is 160 mL/min/kg. For the same molecule, the Drug metabolism entry in data set [12] is “Metabolite_Notdetected”. In addition, the AUC(0-t) in data set [15] amounted to 1180 ng·h/mL. Also, in data set [16], the Ratio turned out to be 1.

(Values after ChEMBL document CHEMBL5154690, “Discovery of a tricyclic farnesoid X receptor agonist HEC96719, a clinical candidate for treatment of non-alcoholic steatohepatitis” (Eur J Med Chem, 2022).)
